The values that follow come from ChEMBL document CHEMBL3992514, “Synthesis, biological characterisation and structure activity relationships of aromatic bisamidines active against Plasmodium falciparum” (Eur J Med Chem, 2017).

Each structure is given as a SMILES string.

For one series, the system named is Plasmodium falciparum. The series is described as follows: Antiparasitic activity against drug-resistant Plasmodium falciparum Dd2 infected in erythrocytes assessed as growth inhibition after 48 hrs by [3H]-hypoxanthine incorporation assay. The series is classed as functional, cell-based.
Details: not given
With `N=C(N)c1ccc(-c2cc(CC(=O)NCCc3ccccc3)c(-c3ccc(C(=N)N)cc3)o2)cc1`, the IC50 was 1.19 µM.
With `CN(C)CCNC(=O)Cc1cc(-c2ccc(C(=N)N)cc2)oc1-c1ccc(C(=N)N)cc1`, the IC50 was more than 10 µM.
In the case of `N=C(N)c1ccc(-c2cc(CC(=O)N3CCN(c4ncccn4)CC3)c(-c3ccc(C(=N)N)cc3)o2)cc1`, the IC50 came to 17.4 µM.
Same read-out and setting: as for `N=C(N)c1ccc(-c2cc(CC(=O)NCCCc3ccccc3)c(-c3ccc(C(=N)N)cc3)o2)cc1`, the figure is 1.67 µM; as for `N=C(N)c1ccc(-c2cc(CC(=O)N3CCOCC3)c(-c3ccc(C(=N)N)cc3)o2)cc1`, more than 10 µM.
The same measure, in the same setting: as for `CSCCNC(=O)Cc1cc(-c2ccc(C(=N)N)cc2)oc1-c1ccc(C(=N)N)cc1`, the figure is 5.48 µM.
`COCc1c(-c2ccc(C(=N)N)cc2)oc(-c2ccc(C(=N)N)cc2)c1COC`: the IC50 was determined as 0.9 µM.
Same read-out and setting: as for `N=C(N)c1ccc(NC(=NCCN2CCCCC2)Nc2ccc(C(=N)N)cc2)cc1`, the figure is more than 10 µM.
On the same count and under the same terms, as for `N=C(N)c1ccc(NC(=NCCc2ccccc2)Nc2ccc(C(=N)N)cc2)cc1`, the figure is more than 10 µM; as for `CN(C)CCCCNC(=O)Cc1cc(-c2ccc(C(=N)N)cc2)oc1-c1ccc(C(=N)N)cc1`, more than 10 µM; as for `CN(C)CCCNC(=O)Cc1cc(-c2ccc(C(=N)N)cc2)oc1-c1ccc(C(=N)N)cc1`, more than 10 µM.
As to `Cc1c(-c2ccc(C(=N)NO)cc2)oc(-c2ccc(C(=N)NO)cc2)c1C`, the IC50 was 7.15 µM.
On the same count and under the same terms, as for `CONC(=N)c1ccc(-c2oc(-c3ccc(C(=N)NOC)cc3)c(C)c2C)cc1`, the figure is 10.6 µM.
As for `N=C(N)c1ccc(-c2cc(CC(=O)N3CCN(C(=O)c4ccccc4)CC3)c(-c3ccc(C(=N)N)cc3)o2)cc1`, the IC50 is more than 10 µM.
In the case of `CCN(CC)CCNC(=O)Cc1cc(-c2ccc(C(=N)N)cc2)oc1-c1ccc(C(=N)N)cc1`, the IC50 is more than 10 µM.
As for `CSCCCNC(=O)Cc1cc(-c2ccc(C(=N)N)cc2)oc1-c1ccc(C(=N)N)cc1`, the IC50 came to 5.43 µM.
The same measure, in the same setting: as for `N=C(N)c1ccc(-c2cc(CC(=O)NCCN3CCCCC3)c(-c3ccc(C(=N)N)cc3)o2)cc1`, the figure is more than 10 µM; as for `N=C(N)c1ccc(-c2cc(CC(=O)NCCN3CCOCC3)c(-c3ccc(C(=N)N)cc3)o2)cc1`, more than 10 µM.

A further series has as its system Plasmodium falciparum. The series is described as follows: Antiparasitic activity against drug-sensitive Plasmodium falciparum 3D7 infected in erythrocytes assessed as growth inhibition after 48 hrs by SYBR green 1 dye-based flow cytometry. The series is classed as functional, cell-based. The conditions noted are these: 3D7, 48 h. Background: A flow cytometer gives signals particle by particle.
For `N=C(N)c1ccc(-c2cc(CC(=O)NCCc3ccccc3)c(-c3ccc(C(=N)N)cc3)o2)cc1`, the IC50 was found to be 1.18 µM.
On the same count and under the same terms, as for `CN(C)CCNC(=O)Cc1cc(-c2ccc(C(=N)N)cc2)oc1-c1ccc(C(=N)N)cc1`, the figure is more than 10 µM; as for `N=C(N)c1ccc(-c2cc(CC(=O)N3CCN(c4ncccn4)CC3)c(-c3ccc(C(=N)N)cc3)o2)cc1`, 7.54 µM; as for `N=C(N)c1ccc(-c2cc(CC(=O)NCCCc3ccccc3)c(-c3ccc(C(=N)N)cc3)o2)cc1`, 0.77 µM.
The same measure, in the same setting: as for `N=C(N)c1ccc(-c2cc(CC(=O)N3CCOCC3)c(-c3ccc(C(=N)N)cc3)o2)cc1`, the figure is more than 10 µM; as for `CSCCNC(=O)Cc1cc(-c2ccc(C(=N)N)cc2)oc1-c1ccc(C(=N)N)cc1`, 6.09 µM; as for `COCc1c(-c2ccc(C(=N)N)cc2)oc(-c2ccc(C(=N)N)cc2)c1COC`, 1.04 µM.
The same measure, in the same setting: as for `CN1CCN(CCNC(=O)Cc2cc(-c3ccc(C(=N)N)cc3)oc2-c2ccc(C(=N)N)cc2)CC1`, the figure is more than 10 µM; as for `N=C(N)c1ccc(NC(=NCCN2CCCCC2)Nc2ccc(C(=N)N)cc2)cc1`, more than 10 µM; as for `N=C(N)c1ccc(NC(=NCCc2ccccc2)Nc2ccc(C(=N)N)cc2)cc1`, more than 10 µM.
`CN(C)CCCCNC(=O)Cc1cc(-c2ccc(C(=N)N)cc2)oc1-c1ccc(C(=N)N)cc1`: the IC50 is more than 10 µM.
On the same count and under the same terms, as for `CN(C)CCCNC(=O)Cc1cc(-c2ccc(C(=N)N)cc2)oc1-c1ccc(C(=N)N)cc1`, the figure is more than 10 µM; as for `Cc1c(-c2ccc(C(=N)NO)cc2)oc(-c2ccc(C(=N)NO)cc2)c1C`, more than 1 µM.
In the case of `CONC(=N)c1ccc(-c2oc(-c3ccc(C(=N)NOC)cc3)c(C)c2C)cc1`, the IC50 is more than 1 µM.
Same read-out and setting: as for `N=C(N)c1ccc(-c2cc(CC(=O)N3CCN(C(=O)c4ccccc4)CC3)c(-c3ccc(C(=N)N)cc3)o2)cc1`, the figure is more than 10 µM.
For `CCN(CC)CCNC(=O)Cc1cc(-c2ccc(C(=N)N)cc2)oc1-c1ccc(C(=N)N)cc1`, the IC50 was more than 10 µM.
On the same count and under the same terms, as for `CSCCCNC(=O)Cc1cc(-c2ccc(C(=N)N)cc2)oc1-c1ccc(C(=N)N)cc1`, the figure is 6.61 µM.
The same measure, in the same setting: as for `N=C(N)c1ccc(-c2cc(CC(=O)NCCN3CCCCC3)c(-c3ccc(C(=N)N)cc3)o2)cc1`, the figure is more than 10 µM.
Still for that read-out and setting: as for `N=C(N)c1ccc(-c2cc(CC(=O)NCCN3CCOCC3)c(-c3ccc(C(=N)N)cc3)o2)cc1`, the figure is more than 10 µM; as for `N=C(N)c1ccc(-c2cc(CC(=O)N3CCCCC3)c(-c3ccc(C(=N)N)cc3)o2)cc1`, 5.13 µM.

Another series concerns HEK293. The series is described as follows: Cytotoxicity against HEK293 cells assessed as decrease in cell viability after 24 hrs by Alamar blue assay. The series is classed as ADME, cell-based. The conditions noted are these: Homo sapiens, HEK293, 24 h. For orientation: The colour change of resazurin is a common sign of viable cells or microbes.
On to `N=C(N)c1ccc(-c2cc(CC(=O)NCCc3ccccc3)c(-c3ccc(C(=N)N)cc3)o2)cc1`, for which the IC50 was more than 50 µM.
For the compound `CN(C)CCNC(=O)Cc1cc(-c2ccc(C(=N)N)cc2)oc1-c1ccc(C(=N)N)cc1`, the IC50 is more than 50 µM.
`N=C(N)c1ccc(-c2cc(CC(=O)N3CCN(c4ncccn4)CC3)c(-c3ccc(C(=N)N)cc3)o2)cc1`: the IC50 is more than 50 µM.
As for `N=C(N)c1ccc(-c2cc(CC(=O)NCCCc3ccccc3)c(-c3ccc(C(=N)N)cc3)o2)cc1`, the IC50 is more than 50 µM.
Take `N=C(N)c1ccc(-c2cc(CC(=O)N3CCOCC3)c(-c3ccc(C(=N)N)cc3)o2)cc1`: the IC50 is more than 50 µM.
With `CSCCNC(=O)Cc1cc(-c2ccc(C(=N)N)cc2)oc1-c1ccc(C(=N)N)cc1`, the IC50 is more than 50 µM.
With `COCc1c(-c2ccc(C(=N)N)cc2)oc(-c2ccc(C(=N)N)cc2)c1COC`, the IC50 is more than 50 µM.
The same measure, in the same setting: as for `CN1CCN(CCNC(=O)Cc2cc(-c3ccc(C(=N)N)cc3)oc2-c2ccc(C(=N)N)cc2)CC1`, the figure is more than 50 µM.
Same read-out and setting: as for `N=C(N)c1ccc(NC(=NCCN2CCCCC2)Nc2ccc(C(=N)N)cc2)cc1`, the figure is more than 50 µM; as for `N=C(N)c1ccc(NC(=NCCc2ccccc2)Nc2ccc(C(=N)N)cc2)cc1`, more than 50 µM.
Take `CN(C)CCCCNC(=O)Cc1cc(-c2ccc(C(=N)N)cc2)oc1-c1ccc(C(=N)N)cc1`: the IC50 was more than 50 µM.
On the same count and under the same terms, as for `CN(C)CCCNC(=O)Cc1cc(-c2ccc(C(=N)N)cc2)oc1-c1ccc(C(=N)N)cc1`, the figure is more than 50 µM; as for `Cc1c(-c2ccc(C(=N)NO)cc2)oc(-c2ccc(C(=N)NO)cc2)c1C`, more than 50 µM.
On the same count and under the same terms, as for `CONC(=N)c1ccc(-c2oc(-c3ccc(C(=N)NOC)cc3)c(C)c2C)cc1`, the figure is more than 50 µM.
For the compound `N=C(N)c1ccc(-c2cc(CC(=O)N3CCN(C(=O)c4ccccc4)CC3)c(-c3ccc(C(=N)N)cc3)o2)cc1`, the IC50 was more than 50 µM.
In the case of `CCN(CC)CCNC(=O)Cc1cc(-c2ccc(C(=N)N)cc2)oc1-c1ccc(C(=N)N)cc1`, the IC50 is more than 50 µM.
`CSCCCNC(=O)Cc1cc(-c2ccc(C(=N)N)cc2)oc1-c1ccc(C(=N)N)cc1`: the IC50 is more than 50 µM.
Still for that read-out and setting: as for `N=C(N)c1ccc(-c2cc(CC(=O)NCCN3CCCCC3)c(-c3ccc(C(=N)N)cc3)o2)cc1`, the figure is more than 50 µM.
As for `N=C(N)c1ccc(-c2cc(CC(=O)NCCN3CCOCC3)c(-c3ccc(C(=N)N)cc3)o2)cc1`, the IC50 is more than 50 µM.
The same measure, in the same setting: as for `N=C(N)c1ccc(-c2cc(CC(=O)N3CCCCC3)c(-c3ccc(C(=N)N)cc3)o2)cc1`, the figure is more than 50 µM.

Test system in another series: not listed separately
Put plainly: Selectivity index, ratio of IC50 for HEK293 cells to IC50 for drug-resistant Plasmodium falciparum Dd2 infected in erythrocytes. The following applies: human.
On to `N=C(N)c1ccc(-c2cc(CC(=O)NCCc3ccccc3)c(-c3ccc(C(=N)N)cc3)o2)cc1`, for which the selectivity ratio is more than 42.
In the case of `N=C(N)c1ccc(-c2cc(CC(=O)N3CCN(c4ncccn4)CC3)c(-c3ccc(C(=N)N)cc3)o2)cc1`, the selectivity ratio was more than 3.
The same measure, in the same setting: as for `N=C(N)c1ccc(-c2cc(CC(=O)NCCCc3ccccc3)c(-c3ccc(C(=N)N)cc3)o2)cc1`, the figure is more than 30; as for `CSCCNC(=O)Cc1cc(-c2ccc(C(=N)N)cc2)oc1-c1ccc(C(=N)N)cc1`, more than 10; as for `COCc1c(-c2ccc(C(=N)N)cc2)oc(-c2ccc(C(=N)N)cc2)c1COC`, more than 56.
On to `Cc1c(-c2ccc(C(=N)NO)cc2)oc(-c2ccc(C(=N)NO)cc2)c1C`, for which the selectivity ratio was more than 10.
Still for that read-out and setting: as for `CONC(=N)c1ccc(-c2oc(-c3ccc(C(=N)NOC)cc3)c(C)c2C)cc1`, the figure is more than 5; as for `CSCCCNC(=O)Cc1cc(-c2ccc(C(=N)N)cc2)oc1-c1ccc(C(=N)N)cc1`, more than 10.

Test system in another series: not listed separately
The series is described as follows: Selectivity index, ratio of IC50 for HEK293 cells to IC50 for drug-sensitive Plasmodium falciparum 3D7 infected in erythrocytes. The conditions noted are these: human.
For `N=C(N)c1ccc(-c2cc(CC(=O)NCCc3ccccc3)c(-c3ccc(C(=N)N)cc3)o2)cc1`, the selectivity ratio was more than 42.
As to `N=C(N)c1ccc(-c2cc(CC(=O)N3CCN(c4ncccn4)CC3)c(-c3ccc(C(=N)N)cc3)o2)cc1`, the selectivity ratio is more than 7.
On the same count and under the same terms, as for `N=C(N)c1ccc(-c2cc(CC(=O)NCCCc3ccccc3)c(-c3ccc(C(=N)N)cc3)o2)cc1`, the figure is more than 65; as for `CSCCNC(=O)Cc1cc(-c2ccc(C(=N)N)cc2)oc1-c1ccc(C(=N)N)cc1`, more than 8; as for `COCc1c(-c2ccc(C(=N)N)cc2)oc(-c2ccc(C(=N)N)cc2)c1COC`, more than 48.
The same measure, in the same setting: as for `CSCCCNC(=O)Cc1cc(-c2ccc(C(=N)N)cc2)oc1-c1ccc(C(=N)N)cc1`, the figure is more than 7; as for `N=C(N)c1ccc(-c2cc(CC(=O)N3CCCCC3)c(-c3ccc(C(=N)N)cc3)o2)cc1`, more than 9.

Usually IC50 stands for the concentration that inhibits the measured activity by half.
